Data set [1] deals with P388/ADR cells. As to the kind of experiment: Anti-tumor efficacy on tumor bearing mice (increase in lifespan). It counts as in vivo, CD2F1 female mice. Particulars: 1.0 mg/kg DOX, I.V. for five consecutive days. As to the method: After 24 hours, mice were randomly divided into different treatment groups (5 mice/group) and vehicle controls or test article formulations were administered I.V. for five consecutive days. Injection volume was based on individual mouse body w eight. Mice were weighed prior to dosing on Days 1-5. […] Mean survival time (MST) was determined and the percent increase in lifespan (% ILS) was calculated as follows: % ILS=[(100×MST of Treatment Group)/(MST of Control Group)]−100% ILS≧25% is considered as a positive response.

Data set [2] is described as follows: Percent entrapment of doxorubicin or mitoxantrone in reconstituted LEP (Sephardex G-25 column, UV absorbance). It counts as physicochemical. The protocol:
Either doxorubicin (0.5 to 1.5 mg/ml) or mitoxantrone (0.5 to 1.5 mg/ml) was dissolved in deionized water, and these solutions were employed to reconstitute the lyophilized LEP cakes. The drug to lipid ratio varied from 1:120 to 1:24 (wt/wt) for doxorubicin and 1:120 to 1:24 (wt/wt) for mitoxantrone. Following reconstitution, the liposomal preparation was subjected to column chromatography using Sephardex G-25 to separate the free doxorubicin or mitoxantrone from the drug bound to the liposomes. The pre and post column samples were solubilized in methanol and the absorbance values were measured at appropriate wavelengths. The absorbance of doxorubicin (480 nm) and mitoxantrone (660 nm) was measured in the formulations both prior to and after column chromatography, and the percent entrapment was calculated using the following equation: % entrapment=[absorbance of drug after column/absorbance of drug before column]×100

In data set [3] the test system is SKVLB (Vincristine-resistant human ovarian) cells. The data set can be described thus: Cytotoxicity by sulforhodamine B assay, SKVLB. It counts as cell-based. Particulars: treated 48 hrs, read-out: GI50 values (mM) against drug-resistant cancer cell lines. As to the method: (§1) SKVLB (Vincristine-resistant human ovarian) cells were obtained from Georgetown University and maintained in RPMI 1640 medium containing 10% heat-inactivated FBS, penicillin (100 units/mL) and streptomycin ([…]) with […] Vincristine. P388/ADR (Adriamycin-resistant murine leukemia) cells were purchased from National Cancer Institute (Frederick, Md.) and maintained in RPMI 1640 medium containing 10% heat-inactivated FBS, penicillin (100 units/mL) and streptomycin ([…]). SKVLB cells were cultured in drug-free media for at least a week before studies. The cells (10,000 cells/well for SKVLB and 25,000 cells/well for P388/ADR) were plated in a 96-well plate overnight and treated with doxorubicin, LEP or LEPD for 48 hrs. After incubation, the cytotoxicity was determined by a sulforhodamine B assay.
On the technique in general: The SRB assay estimates cell density from bound dye.

The subject of data set [4] is P388/ADR (Adriamycin-resistant murine leukemia) cells. As to the kind of experiment: Cytotoxicity by sulforhodamine B assay, P388/ADR. In kind it is cell-based. Particulars: Mus musculus, treated 48 hrs, read-out: GI50 values (mM) against drug-resistant cancer cell lines. As to the method:
as §1

Data set [5] is described as follows: Effect of mitoxantrone or doxorubicin loading on entrapment of paclitaxel in LEP-ETU. In kind it is physicochemical. As to the method:
Mitoxantrone or doxorubicin (0.5 to 1.5 mg) was loaded into LEP-ETU.

Experimental findings from US20060165744A1, “Combination liposomal formulations” (NeoPharm, Inc, priority 2003, published 2006) are described below.

Usually GI50 stands for the concentration giving 50% growth inhibition.

On to `COc1cccc2c1C(=O)c1c(O)c3c(c(O)c1C2=O)C[C@@](O)(C(=O)CO)C[C@@H]3O[C@H]1C[C@H](N)[C@H](O)[C@H](C)O1` [Doxorubicin (DOX), doxorubicin], for which the “% ILS” value in data set [1] was found to be 18.20%. Further, the “DOX % Entrapment UV 480 nm” value worked out at 93% in data set [2] (Initial DOX concentration 0.50 mg/mL), 92% in data set [2] (Initial DOX concentration 0.75 mg/mL), 90% in data set [2] (Initial DOX concentration 1.00 mg/mL) and 78% in data set [2] (Initial DOX concentration 1.50 mg/mL). Also, the GI50 was determined as 0.016 mM in data set [3] and 0.015 mM in data set [4].
As to `O=C1c2c(O)ccc(O)c2C(=O)c2c(NCCNCCO)ccc(NCCNCCO)c21` [MTO, mitoxantrone], the “MTO % Entrapment UV 660 nm” value was 97% in data set [2] (Initial MTO concentration 0.50 mg/mL), 99% in data set [2] (Initial MTO concentration 0.75 mg/mL), 100% in data set [2] (Initial MTO concentration 1.00 mg/mL) and 101% in data set [2] (Initial MTO concentration 1.50 mg/mL).
On to `CC(=O)O[C@H]1C(=O)[C@@]2(C)[C@H]([C@H](OC(=O)c3ccccc3)[C@]3(O)C[C@H](OC(=O)[C@H](O)[C@@H](NC(=O)c4ccccc4)c4ccccc4)C(C)=C1C3(C)C)[C@]1(OC(C)=O)CO[C@@H]1C[C@@H]2O` [Paclitaxel, paclitaxel], for which the “Paclitaxel Entrapment (%) With DOX” value in data set [5] (Initial DOX 0.50 mg/mL) came to 102%; in data set [5] (Initial DOX 0.75 mg/mL), 102%; in data set [5] (Initial DOX 1.00 mg/mL) it was 102%; in data set [5] (Initial DOX 1.50 mg/mL) it was 109%.
